Columns and labels:
[1] = target: T1, Pyruvate kinase PKLR (Homo sapiens, UniProt P30613); assay: Inhibition of PKL (unknown origin) at 10 uM for 30 mins by Kinase-Glo Max reagent based luminescence assay
Target sequence in this assay (P30613 whole entry, looked up): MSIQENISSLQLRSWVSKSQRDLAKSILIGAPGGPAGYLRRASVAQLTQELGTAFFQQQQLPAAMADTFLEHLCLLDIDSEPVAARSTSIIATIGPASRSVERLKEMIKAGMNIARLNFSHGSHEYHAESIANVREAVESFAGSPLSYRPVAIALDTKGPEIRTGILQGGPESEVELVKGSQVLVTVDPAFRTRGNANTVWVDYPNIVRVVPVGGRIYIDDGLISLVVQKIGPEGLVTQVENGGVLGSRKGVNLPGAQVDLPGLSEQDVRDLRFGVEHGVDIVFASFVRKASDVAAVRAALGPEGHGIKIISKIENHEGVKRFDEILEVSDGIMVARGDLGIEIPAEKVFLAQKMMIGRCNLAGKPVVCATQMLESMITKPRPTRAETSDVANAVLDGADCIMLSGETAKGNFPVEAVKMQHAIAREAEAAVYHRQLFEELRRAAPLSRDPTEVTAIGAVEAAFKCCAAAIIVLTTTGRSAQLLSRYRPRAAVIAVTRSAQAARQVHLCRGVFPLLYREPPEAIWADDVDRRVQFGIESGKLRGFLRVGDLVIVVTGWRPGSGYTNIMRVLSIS

[2] = target: T1, Pyruvate kinase PKLR; assay: Inhibition of PKL in human PKM2 knockout HepG2 cells at 10 uM incubated for 5 mins by Microplate reader based analysis relative to control; assay type: cell-based
Target sequence in this assay (P30613 whole entry, looked up): as above

[3] = target: T1, Pyruvate kinase PKLR; assay: Inhibition of PKL (unknown origin) for 30 mins by Kinase-Glo Max reagent based luminescence assay
Target sequence in this assay (P30613 whole entry): as the sequence (P30613 whole entry, looked up) above

O=C1c2ccccc2C(=O)c2cc(S(=O)(=O)N3CCN(C(=O)CC(O)(C(=O)O)C(=O)O)CC3)c(O)cc21
inhibition [1]: 63% | inhibition [2]: 22.6%

O=C(O)CCCCNS(=O)(=O)c1cc2c(c(O)c1O)C(=O)c1ccccc1C2=O
IC50 [3]: 19000 nM | inhibition [1]: 97%

O=C1c2ccccc2C(=O)c2cc(S(=O)(=O)N3CCCC(C(=O)O)C3)c(O)cc21 (stereo not given)
inhibition [1]: 58% | inhibition [2]: 40.6%

O=C(O)CC(O)(CC(=O)N1CCN(S(=O)(=O)c2cc(O)c3c(c2)C(=O)c2ccccc2C3=O)CC1)C(=O)O (stereo not given)
inhibition [1]: 3%

O=C(O)CC[C@H](NC(=O)C1CCCN(S(=O)(=O)c2cc3c(c(O)c2O)C(=O)c2ccccc2C3=O)C1)C(=O)O (stereo not given in full)
IC50 [3]: 1300 nM | inhibition [1]: 94%

O=C(O)c1cc2c(c(O)c1O)C(=O)c1ccccc1C2=O
IC50 [3]: 1400 nM | inhibition [1]: 94%

O=C1c2ccccc2C(=O)c2c1cc(S(=O)(=O)O)c(O)c2O [Alizarin Red S]
IC50 [3]: 200 nM | inhibition [1]: 100% | inhibition [2]: 54%

O=C(O)CCNS(=O)(=O)c1cc2c(c(O)c1O)C(=O)c1ccccc1C2=O
IC50 [3]: 5800 nM | inhibition [1]: 102%

COc1c(S(=O)(=O)O)cc2c(c1OC)C(=O)c1ccccc1C2=O
inhibition [1]: 19%

CSCCC(NS(=O)(=O)c1cc2c(c(O)c1O)C(=O)c1ccccc1C2=O)C(=O)O (stereo not given)
IC50 [3]: 1400 nM | inhibition [1]: 78%

O=C(O)CC(Nc1cc2c(cc1O)C(=O)c1ccccc1C2=O)C(=O)O (stereo not given)
inhibition [1]: 57% | inhibition [2]: 59.7%

O=C1c2ccccc2C(=O)c2c1cc(S(=O)(=O)N1CCCC(C(=O)O)C1)c(O)c2O (stereo not given)
IC50 [3]: 160 nM | inhibition [1]: 92%

O=C(O)C[C@H](NC(=O)C1CCCN(S(=O)(=O)c2cc3c(c(O)c2O)C(=O)c2ccccc2C3=O)C1)C(=O)O (stereo not given in full)
IC50 [3]: 1900 nM | inhibition [1]: 72%

O=C(O)CNS(=O)(=O)c1cc2c(c(O)c1O)C(=O)c1ccccc1C2=O
IC50 [3]: 200 nM | inhibition [1]: 100%

O=C1c2ccccc2C(=O)c2c1ccc(O)c2O
inhibition [1]: 51%

O=C(O)Cc1ccc(CNc2cc3c(c(O)c2O)C(=O)c2ccccc2C3=O)cc1
IC50 [3]: 3800 nM | inhibition [1]: 96% | inhibition [2]: 82.5%

O=C(O)CC(Nc1cc2c(c(O)c1O)C(=O)c1ccccc1C2=O)C(=O)O (stereo not given)
IC50 [3]: 2500 nM | inhibition [1]: 90% | inhibition [2]: 83.5%

O=C(O)CNS(=O)(=O)c1cc2c(cc1O)C(=O)c1ccccc1C2=O
inhibition [1]: 86% | inhibition [2]: 78.7%

O=C1c2ccccc2C(=O)c2c1cc(C(=O)N1CCNCC1)c(O)c2O
inhibition [1]: 22%

Nc1c(S(=O)(=O)O)cc2c(c1O)C(=O)c1ccccc1C2=O
inhibition [1]: 77%

O=C(O)Cc1ccc(CNC(=O)N2CCN(S(=O)(=O)c3cc4c(c(O)c3O)C(=O)c3ccccc3C4=O)CC2)cc1C(=O)O
IC50 [3]: 290 nM | inhibition [1]: 99%

O=C(O)CCCNS(=O)(=O)c1cc2c(c(O)c1O)C(=O)c1ccccc1C2=O
IC50 [3]: 7500 nM | inhibition [1]: 101%

O=C(O)CNc1cc2c(cc1O)C(=O)c1ccccc1C2=O
inhibition [1]: 82% | inhibition [2]: 82.7%

O=C1c2ccccc2C(=O)c2c1cc(-c1ccc(O)c(O)c1)c(O)c2O
inhibition [1]: 16%

O=C1c2ccccc2C(=O)c2c1cc(-c1ccc(O)cc1)c(O)c2O
inhibition [1]: 39%

COC[C@H](NS(=O)(=O)c1cc2c(c(O)c1O)C(=O)c1ccccc1C2=O)C(=O)O
IC50 [3]: 1200 nM | inhibition [1]: 101%

O=C(O)Cc1ccc(CNc2cc3c(c(O)c2O)C(=O)c2ccccc2C3=O)cc1C(=O)O
IC50 [3]: 1300 nM | inhibition [1]: 79% | inhibition [2]: 79.3%

O=C(O)CC[C@H](NC(=O)C1CCN(S(=O)(=O)c2cc3c(c(O)c2O)C(=O)c2ccccc2C3=O)CC1)C(=O)O
inhibition [1]: 45%

O=C(O)CNC(=O)CNC(=O)CNS(=O)(=O)c1cc2c(c(O)c1O)C(=O)c1ccccc1C2=O
IC50 [3]: 700 nM | inhibition [1]: 92%

O=C1c2ccccc2C(=O)c2c(O)cc(S(=O)(=O)O)cc21
IC50 [3]: 7300 nM | inhibition [1]: 65%

O=C(O)Cc1ccc(CNS(=O)(=O)c2cc3c(c(O)c2O)C(=O)c2ccccc2C3=O)cc1C(=O)O
IC50 [3]: 300 nM | inhibition [1]: 99%

O=C(O)CC(O)(CC(=O)N1CCN(C(=O)c2cc3c(c(O)c2O)C(=O)c2ccccc2C3=O)CC1)C(=O)O (stereo not given)
inhibition [1]: -1%

O=C(O)Cc1ccc(CNc2cc3c(cc2O)C(=O)c2ccccc2C3=O)cc1
inhibition [1]: 76% | inhibition [2]: 41.1%

O=C1c2ccccc2C(=O)c2c1cc(S(=O)(=O)N1CCNCC1)c(O)c2O
IC50 [3]: 150 nM | inhibition [1]: 98%

NS(=O)(=O)c1cccc(-c2cc3c(c(O)c2O)C(=O)c2ccccc2C3=O)c1
inhibition [1]: 66%

O=C1c2ccccc2C(=O)c2cc(S(=O)(=O)O)ccc21
inhibition [1]: 45%

O=C(O)Cc1ccc(CNc2cc3c(cc2O)C(=O)c2ccccc2C3=O)cc1C(=O)O
inhibition [1]: 94% | inhibition [2]: 50.2%

O=C1c2ccccc2C(=O)c2c1cc(S(=O)(=O)N1CCC(C(=O)O)CC1)c(O)c2O
IC50 [3]: 4800 nM | inhibition [1]: 87%

CS(=O)(=O)c1cccc(-c2cc3c(c(O)c2O)C(=O)c2ccccc2C3=O)c1
inhibition [1]: 31%

O=C(O)CNC(=O)CNS(=O)(=O)c1cc2c(c(O)c1O)C(=O)c1ccccc1C2=O
IC50 [3]: 4100 nM | inhibition [1]: 102%

O=C1c2ccccc2C(=O)c2cc(S(=O)(=O)O)c(O)cc21
IC50 [3]: 3400 nM | inhibition [1]: 95%

O=C(O)C[C@H](NC(=O)C1CCN(S(=O)(=O)c2cc3c(c(O)c2O)C(=O)c2ccccc2C3=O)CC1)C(=O)O
inhibition [1]: 35%

O=C1c2ccccc2C(=O)c2c1cc(S(=O)(=O)N[C@@H](CO)C(=O)O)c(O)c2O
IC50 [3]: 900 nM | inhibition [1]: 97%

O=C(O)Cc1ccc(CNC(=O)Nc2cc3c(c(O)c2O)C(=O)c2ccccc2C3=O)cc1C(=O)O
IC50 [3]: 1700 nM | inhibition [1]: 61% | inhibition [2]: 34%

O=C(O)CC[C@H](NC(=O)N1CCN(S(=O)(=O)c2cc3c(c(O)c2O)C(=O)c2ccccc2C3=O)CC1)C(=O)O
IC50 [3]: 550 nM | inhibition [1]: 99%

O=C1c2ccccc2C(=O)c2c1cc(S(=O)(=O)N1CCCC(C(=O)N[C@@H](Cc3c[nH]cn3)C(=O)O)C1)c(O)c2O (stereo not given in full)
inhibition [1]: 27%

O=C(O)CC(O)(CC(=O)N1CCN(S(=O)(=O)c2cc3c(c(O)c2O)C(=O)c2ccccc2C3=O)CC1)C(=O)O (stereo not given)
IC50 [3]: 200 nM | inhibition [1]: 100%

Source: ChEMBL document CHEMBL5131504, “Anthraquinone derivatives as ADP-competitive inhibitors of liver pyruvate kinase” (Eur J Med Chem, 2022)
